Test results: US20050124595A1, “Compositions and methods for treating glaucoma and ocular hypertension” (priority 2002, published 2005)

How the values were obtained:
[1] = test system: Mice (CD-1); assay: Tremorgen assay, mouse model; format: in vivo; conditions: CD-1 mice; for Tremors: intraperitoneal
Description: Tremorgen Assay A mouse model was developed to evaluate the tremorgen potential of the instance compounds. Mice (CD-1) were injected intraperitoneally at 5 mg/Kg with each compound and observed by investigators for 1 hour for any signs of tremors as well as other behaviors not seen in control mice.
A known tremorgen, Aflatrem, consistently produces tremors in injected mice within 15 minutes at 1 and 5 mg/Kg.

[2] = target: T1, high-conductance calcium-activated potassium (maxi-K) channels (Homo sapiens, UniProt Q12791); assay: Patch clamp recordings of maxi-K channel currents in excised inside-out membrane patches; format: biochemical; conditions: from reduction in peak current, 10 nM compound on internal side of membrane patch, held at -80 mV, steps typically to +50 mV
T1 construct: expressed in transfected cells; host or cells: CHO cells (α-subunit alone) and HEK293 cells (α- and β-subunits)
T1 sequence (Q12791 whole entry): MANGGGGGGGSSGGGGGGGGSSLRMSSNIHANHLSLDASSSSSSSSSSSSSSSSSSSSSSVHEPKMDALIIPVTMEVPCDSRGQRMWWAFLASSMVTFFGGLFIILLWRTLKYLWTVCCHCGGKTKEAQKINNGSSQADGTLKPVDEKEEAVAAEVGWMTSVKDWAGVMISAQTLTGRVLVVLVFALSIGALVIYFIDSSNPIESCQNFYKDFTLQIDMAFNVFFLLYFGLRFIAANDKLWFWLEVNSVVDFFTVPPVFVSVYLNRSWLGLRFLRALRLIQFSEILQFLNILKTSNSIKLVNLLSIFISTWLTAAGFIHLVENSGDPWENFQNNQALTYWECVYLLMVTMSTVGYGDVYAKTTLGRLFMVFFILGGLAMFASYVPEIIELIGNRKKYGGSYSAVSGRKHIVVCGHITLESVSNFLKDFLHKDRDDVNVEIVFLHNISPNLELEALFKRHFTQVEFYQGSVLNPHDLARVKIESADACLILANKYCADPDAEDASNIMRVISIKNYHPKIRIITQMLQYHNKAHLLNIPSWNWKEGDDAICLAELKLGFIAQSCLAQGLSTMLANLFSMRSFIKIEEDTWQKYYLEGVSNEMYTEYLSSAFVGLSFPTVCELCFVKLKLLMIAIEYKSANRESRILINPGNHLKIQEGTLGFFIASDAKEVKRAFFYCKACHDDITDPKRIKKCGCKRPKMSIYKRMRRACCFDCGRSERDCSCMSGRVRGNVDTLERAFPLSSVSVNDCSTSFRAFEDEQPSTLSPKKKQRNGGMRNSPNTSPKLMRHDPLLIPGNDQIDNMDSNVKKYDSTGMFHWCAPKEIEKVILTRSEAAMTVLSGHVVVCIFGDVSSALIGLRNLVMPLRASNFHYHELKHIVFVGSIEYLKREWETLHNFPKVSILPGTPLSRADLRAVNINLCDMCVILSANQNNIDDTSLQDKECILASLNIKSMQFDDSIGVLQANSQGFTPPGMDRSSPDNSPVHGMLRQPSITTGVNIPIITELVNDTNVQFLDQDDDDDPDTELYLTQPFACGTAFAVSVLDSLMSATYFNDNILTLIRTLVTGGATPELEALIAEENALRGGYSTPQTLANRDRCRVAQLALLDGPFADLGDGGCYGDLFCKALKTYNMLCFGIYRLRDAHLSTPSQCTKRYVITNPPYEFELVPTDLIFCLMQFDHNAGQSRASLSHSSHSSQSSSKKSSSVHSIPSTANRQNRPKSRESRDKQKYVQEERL
Excerpt: Patch clamp recordings of currents flowing through high-conductance calcium-activated potassium (maxi-K) channels were made from membrane patches excised from CHO cells constitutively expressing the α-subunit of the maxi-K channel and from HEK293 cells constitutively expressing both α- and β-subunits using conventional techniques (Hamill et al., 1981, Pflügers Archiv. 391, 85-100) at room temperature. Glass capillary tubing (Garner #7052) was pulled in two stages to yield micropipettes with tip diameters of approximately 1-2 microns. Pipettes were typically filled with solutions containing (mM): 150 KCl, 10 Hepes (4-(2-hydroxyethyl)-1-piperazine […]), 1 MgCl2, 0.01 CaCl2, and adjusted to pH 7.20 with 3.7 mM KOH. After forming a high resistance ([…]) seal between the plasma membrane and the pipette, the pipette was withdrawn from the cell, forming an excised inside-out membrane patch. The patch was excised into a bath solution containing (mM): 150 KCl, 10 Hepes, 5 EGTA (ethylene glycol bis(β-aminoethyl ether)-N,N,N′,N′-tetraacetic acid), sufficient Ca to yield a free Ca concentration of 1-5 μM, and the pH was adjusted to 7.2 with KOH. For example, 4.193 mM Ca was added to give a free concentration of 1 μM at 22° C. An EPC9 amplifier (HEKA Elektronic, Lambrect, Germany) was used to control the voltage and to measure the currents flowing across the membrane patch. The input to the headstage was connected to the pipette solution with a Ag/AgCl wire, and the amplifier ground was connected to the bath solution with a Ag/AgCl wire covered with a tube filled with agar dissolved in 0.2 M KCl. […]
The effects of the compounds of the present invention on maxi-K channels was examined in excised inside-out membrane patches. […] The fraction of channels blocked in each experiment was calculated from the reduction in peak current caused by application of 10 nM of specified compound to the internal side of the membrane patch. […]

Row | Compound | Tremors ([1]; 5 mg/Kg, observed for 1 hour) | FRACTION BLOCKED (10 nM) [2] | time to tremors after injection ([1]; 1 and 5 mg/Kg) | Tremors ([1]; 1 and 5 mg/Kg)
1 | CC(C)=CCc1cccc2[nH]c3c(c12)C[C@@H]1CC[C@@]2(O)C45OC4C4OC(C6OC6(C)C)OC(C)(C)C4OC5=CC[C@]2(C)[C@@]31C (some centres unmarked) [Compound III] | None | 0.99-1 | – | –
2 | CC(C)=CC1OC2C(OC3=CC[C@]4(C)[C@@]5(C)c6[nH]c7ccccc7c6C[C@@H]5CC[C@@]4(O)C34OC24)C(C)(C)O1 (some centres unmarked) [Compound II] | None | 0.99-1 | – | –
3 | CC1(C)OC1Cc1cccc2[nH]c3c(c12)C[C@@H]1CC[C@@]2(O)C45OC4C4OC(C6OC6(C)C)OC(C)(C)C4OC5=CC[C@]2(C)[C@@]31C (some centres unmarked) [Compound I] | None | 0.9 | – | –
4 | Aflatrem [reference compound] | – | – | ≤ 15 min | Tremors
